# Data reported in patent publication US20260000608A1, “COMPOSITIONS AND METHODS FOR ADMINISTERING ANESTHETICS” (Children's Medical Center Corporation, priority 2018, published 2026).
# “And” between values parts separate entries of the source, which are not always exact repeats. Equal values may be shown once.
# What was measured:
# [1] = Bupivacaine concentration in the blood after IVRA and tourniquet release; assay type: in vivo, rat
# Experimental: The following were administered as IVRA: saline, 0.5% free bupivacaine, 0.1% free bupivacaine, micellar composition comprising bupivacaine (0.1% bupivacaine), and liposomal composition comprising bupivacaine (0.1% bupivacaine). After releasing the tourniquet, 200 microliters of blood was collected (through the tail vein opposite from that through formulations were injected) at 15 minutes, 30 minutes, 45 minutes, 90 minutes, 150 minutes, 240 minutes, 480 minutes and 720 minutes. Blood was put in ethylenediaminetetraacetic acid (EDTA) containing blood collection tubes (BD, USA). The samples were stored in ice water for 10-15 minutes and then centrifuged at 3,000 rpm at 4° C. for 5 minutes to obtain plasma. The hemocytes were lysed by ultrasonication (Sonics & Materials, Inc., USA) at 4° C. for 2 minutes and centrifuged at 13,000 rpm at 4° C. for 5 minutes to obtain a supernatant. The supernatant was combined with plasma. Next, 50 microliters of the blood samples were mixed with 10 microliters of sodium hydroxide aqueous solution (1 M) and 0.3 mL ethyl ether in an ice-water bath. The mixtures were vigorously vortexed for 2 minutes and centrifuged at 3,000 rpm for […] at room temperature. The organic phase was transferred to a 4 mL glass vial and evaporated to dryness in a 4° C. ice-water bath under vacuum. The residue was dissolved in 200 microliters of water-methanol (50/50, v/v), and was mechanically agitated for 30 seconds. The samples were transferred to clean polypropylene tubes and centrifuged at 13,000 rpm for 10 minutes. The supernatant was analyzed by HPLC.
# rat tail [2] = experiment: Rat tail IVRA (Bier block) assessed by tail-flick test; assay type: in vivo
# Experimental: In a typical IVRA procedures, the rats were anesthetized with isoflurane-oxygen. The tail vein was cannulated with a 24-gauge IV catheter, which was placed in the distal third of the tail and filled with heparinized saline (BD, USA). The tail was exsanguinated by wrapping it with a rubber strip. An elastic tourniquet was tightly applied proximal to the rubber strip and then the rubber strip was removed. Next, 0.4 mL of formulation was injected by a microinjector (1 mL) through the IV catheter. After releasing the tourniquet, animals were allowed to recover from the isoflurane anesthesia, then rat tail IVRA was assessed by the tail-flick test. In brief, tail-flick latency (the time from onset of radiant heat to tail-flick response) was measured by a tail-flick analgesia meter (Tail-Flick Unit 37370; Ugo Basile, Comerio, Italy). The intensity of radiant heat (parameter of the analgesia meter) was set at 90%, and cut-off time of radiant heat was set at 18 seconds. The testing area was between the injection site in the distal tail and the tourniquet, in the proximal tail. Baseline tail-flick latency was measured in untreated and saline injected rats. All evaluations were performed by two trained observers blinded to group allocation.
# HUVECs = experiment: Cytotoxicity in HUVECs (MTS cell viability); assay type: cell-based, human; settings: 0.1 mg/mL free bupivacaine, 24 hours
# Experimental: HUVECs were purchased from ATCC. The cell line was authenticated by the suppliers and passaged in the laboratory for fewer than 3 months after resuscitation. HUVECs were maintained in a 37° C./5% CO2 humidified chamber in Endothelial Cell Growth Medium (EBM-2) (Lonza, USA). When the cells grew to 80% confluence, the cell studies were performed. For cytotoxicity studies, HUVECs were seeded in 96-well plates and incubated with various drug formulations (free bupivacaine, micellar composition comprising bupivacaine, and liposomal composition comprising bupivacaine) for 24 hours. Cell viability was evaluated by CellTiter 96® AQueous One Solution Cell Proliferation Assay (MTS) (Promega, USA) according to suppliers' instructions. The absorbance at 490 nm wavelength was detected with a microplate reader ([…]x, BioTek®, USA). Untreated cells served as a control. Results were shown as the average cell viability [(OD treat OD blank)/(OD control OD blank)×100%] of quintuplicate wells. […] The cells were washed three times with 3 mL of fresh medium and the washing medium was added to the collected incubated medium, the final volume of the collected medium was adjusted to 12 mL and the fluorescence intensity of each medium was measured by fluorescence spectrophotometer (Cary Eclipse, Agilent, USA). […]
# [3] = tested on: rat tails and organs (heart, liver, spleen, lung, kidney); experiment: Histology (H&E) of tails and organs 24 hours after IVRA; assay type: in vivo; settings: 0.5% bupivacaine
# Experimental: 24 hours after the IVRA procedures, rats that had been administered saline, free bupivacaine (0.5% bupivacaine), micellar composition comprising bupivacaine (0.1% bupivacaine), and liposomal composition comprising bupivacaine (0.1% bupivacaine) were euthanized. Tails and organs (e.g., heart, liver, spleen, lung, and kidney) were harvested and fixed with 10% formalin. The organs were processed by standard procedures to produce hematoxylin and eosin-stained (H&E stained) slides. The tails were decalcified to remove bones before H&B staining procedures. Similar regions were examined in each organ from different groups. Tissues from healthy rats (no treatment) were used as negative controls.
# rat tail blood vessels = experiment: Distribution within the tail: frozen sections, anti-CD34 staining, CLSM; assay type: in vivo
# Experimental: The slices were imaged by CLSM. The intensity of the Rhd fluorescence was calculated from images using ImageJ.
# rat tail [4] = experiment: In vivo imaging (IVIS) of Rhd fluorescence retention in rat tail after tourniquet release; settings: one hour after tourniquet release, n=4
# Experimental: For in vivo imaging, the same IVRA procedures were performed, and 0.4 mL of: (i) free Rhd; Rhd-labeled micellar composition comprising bupivacaine; and Rhd-labeled liposomal composition comprising bupivacaine was injected into the tails of rats (n=4) after fastening the tourniquet. Images were taken with an In Vivo Imaging System (PerkinElmer Inc., USA) before releasing the tourniquet, and the signal intensity in those images was considered to be 100%. […] The Rhd signals of each composition were quantified at each time point, and normalized to the intensity before tourniquet release.
# [5] = 0.4 mL of 0.5% bupivacaine by IVRA, tourniquet time 5 min
# [6] = 0.4 mL of 0.5% bupivacaine by IVRA, tourniquet time 10 min
# [7] = 0.4 mL of 0.5% bupivacaine by IVRA, tourniquet time 15 min
# [8] = 0.4 mL of 0.5% bupivacaine by IVRA, tourniquet time 20 min
# [9] = 0.4 mL of 0.5% bupivacaine by IVRA, tourniquet time 30 min
# [10] = bupivacaine concentration 0.1% w/v, 0.4 mL, 15 minute tourniquet
# [11] = bupivacaine concentration 0.5% w/v, 0.4 mL, 15 minute tourniquet
molecule,measurement,setting,value
"CCCCN1CCCCC1C(=O)Nc1c(C)cccc1C (centres unmarked) [Free bupivacaine, bupivacaine]",mortality,"[1]; 0.5% free bupivacaine by IVRA, rats",none died
same,clinical observation after tourniquet release,"[1]; rat, in vivo",dyspnea
same,time of peak bupivacaine concentration in blood,"[1]; rat, in vivo",45 min
same,anesthetic effect (tail-flick),"rat tail [2]; 0.1% bupivacaine, comparable to saline",did not achieve any anesthetic effect
same,Anesthesia Duration,rat tail [2]; [5],0 h
same,Successful Anesthesia (%),rat tail [2]; [5],0%
same,Anesthesia Duration,rat tail [2]; [6],0.3 ± 0.5 h
same,Successful Anesthesia (%),rat tail [2]; [6],25%
same,Anesthesia Duration,rat tail [2]; [7],2 h and 2.0 ± 0.6 h
same,Successful Anesthesia (%),rat tail [2]; [7],100%
same,animals with anesthesia,"rat tail [2]; 0.4 mL of 0.5% bupivacaine by IVRA, tourniquet time 15 minutes",four of four
same,Anesthesia Duration,rat tail [2]; [8],1.9 ± 0.5 h
same,Successful Anesthesia (%),rat tail [2]; [8],100%
same,Anesthesia Duration,rat tail [2]; [9],2.0 ± 0.5 h
same,Successful Anesthesia (%),rat tail [2]; [9],100%
same,Anesthesia Duration,rat tail [2]; [10],0 h
same,Successful Anesthesia (%),rat tail [2]; [10],0%
same,Anesthesia Duration,rat tail [2]; [11],2.0 ± 0.6 h
same,Successful Anesthesia (%),rat tail [2]; [11],100%
same,Anesthesia Duration,"rat tail [2]; bupivacaine concentration 0.5% w/v, 0.4 mL, 15 minute tourniquet, listed as free bupivacaine",2.0 ± 0.6 h
same,cells alive,HUVECs,22.1+/−2.4%
same,"histology of heart, liver, spleen, lung and kidney (H&E)",[3],no histological abnormalities
same,tail myotoxicity (H&E),[3],no myotoxicity
rhodamine [free Rhd],Rhd signal in tail sections (fluorescence microscopy),rat tail blood vessels; 15 minutes after release of the tourniquet,very strong Rhd signals co-localized with blood vessel
same,Rhd signal in tail sections (fluorescence microscopy),rat tail blood vessels; four hours after release of the tourniquet,much weaker than at 15 minutes
same,"fluorescence intensity in the rat tail, % of intensity before tourniquet release",rat tail [4],~50%
